In ChEMBL document CHEMBL4265869, “Prodrugs of triterpenoids and their derivatives” (Eur J Med Chem, 2017) one finds EC50, selectivity ratio and IC50 data, which are given here for 5 compounds.

The test system of one data set is FaDu. Description: Cytotoxicity in human FADU cells by photometric SRB assay. The data set is classed as functional, cell-based. Background: Sulforhodamine B stains cellular protein and so reports cell mass.
Another data set concerns 518A2. As to the kind of experiment: Cytotoxicity in human 518A2 cells by photometric SRB assay. Type of data set: functional, cell-based.
For the next data set, the system named is MCF7. Description: Cytotoxicity in human MCF7 cells by photometric SRB assay. Type of data set: functional, cell-based.
In the next data set the test system is SW-1736. As to the kind of experiment: Cytotoxicity in human SW1736 cells by photometric SRB assay. The data set is classed as functional, cell-based.
The next data set has as its system HT-29. Description: Cytotoxicity in human HT-29 cells by photometric SRB assay. Type of data set: functional, cell-based.
Data set [1] has as its system A549. As to the kind of experiment: Cytotoxicity in human A549 cells by photometric SRB assay. The data set is classed as functional, cell-based.
Data set [2] in a line: Selectivity index, ratio of EC50 for mouse NIH/3T3 cells to EC50 for human A549 cells. The data set is classed as toxicity. To be noted: NIH/3T3 cells and A549 cells, read-out: Ratio EC50.
The test system of data set [3] is A549. Description: Cytotoxicity in human A549 cells. The data set is classed as functional, cell-based.

Usually EC50 stands for the concentration that produces a half-maximal response. Read a high EC50 as a need for much substance. On to `COC(=O)[C@]12CCC(C)(C)C[C@H]1C1=CC[C@@H]3[C@@]4(C)C[C@@H](O)[C@H](OS(N)(=O)=O)C(C)(C)[C@@H]4CC[C@@]3(C)[C@]1(C)CC2`, for which the EC50 in the data set on FaDu, in the data set on 518A2, in the data set with MCF7, in the data set with SW-1736, in the data set with HT-29 and with A549 [1] was 2200 to 3500 nM throughout.
`COC(=O)[C@]12CCC(C)(C)C[C@H]1C1=CC(=O)[C@@H]3[C@@]4(C)CC[C@H](OS(N)(=O)=O)C(C)(C)[C@@H]4CC[C@@]3(C)[C@]1(C)CC2`: in data set [2], the selectivity ratio was 2.7.
For orientation: IC50 means the concentration at which inhibition is half-maximal. Lower therefore signals greater potency in that assay. In the data set with A549 [3], `C/C=C(\C)C(=O)O[C@@H]1CC(C)(C)C[C@H]2C3=CC[C@@H]4[C@@]5(C)CC[C@H](OC(=O)Cc6ccccc6Cc6c(Cl)cccc6Cl)C(C)(C)[C@@H]5CC[C@@]4(C)[C@]3(C)CCC12C(=O)O` (single isomer, unassigned) displayed an IC50 of 150 nM.
Still for that read-out and setting: to `C/C=C(\C)C(=O)O[C@@H]1CC(C)(C)C[C@H]2C3=CC[C@@H]4[C@@]5(C)CC[C@H](Oc6ccccc6C(C)=O)C(C)(C)[C@@H]5CC[C@@]4(C)[C@]3(C)CCC12C(=O)O` (single isomer, unassigned) belongs 770 nM; to `CC(C)=CC(=O)O[C@@H]1CC(C)(C)C[C@H]2C3=CC[C@@H]4[C@@]5(C)CC[C@H](OC(=O)Cc6ccccc6Cc6c(Cl)cccc6Cl)C(C)(C)[C@@H]5CC[C@@]4(C)[C@]3(C)CCC12C(=O)O` (single isomer, unassigned), 420 nM.
